Laboratory results from the NIST ThermoML archive (doi:10.1016/j.jct.2015.11.007).
Numbers after ± are expanded uncertainties.

Assays:
[1] = Crystal; DTA
[2] = Molar enthalpy of transition or fusion; conditions: Crystal; DSC

NC(=O)CN1CC(O)CC1=O (configuration not stated) [4-hydroxy-2-oxo-1-pyrrolidineacetamide]
Normal melting temperature [1]: 172.13 ± 0.61 °C | Molar enthalpy of transition or fusion [2]: 34.7 ± 1.4 kJ/mol
